A short description of assay [1]: Promoting excretion of 238Pu(IV) in mice by injected ligands. Type of assay: in vivo. Particulars: ligand 30 µmol kg^-1 ip at 1 h after iv ^238Pu(IV) citrate, kill at 24 h. The source says: (§1) Animal studies were completed using methods detailed in Radiation Protection Dosimetry, in press, P. W. Durbin et al., "In Vivo Chelation of Am(III), Pu(IV), Np(V) and U(VI) in Mice by TREN-(Me-3,2-HOPO)"; Radiation Protection Dosimetry, 17, No. 1, 1989, p. 351, P. W. Durbin et al., "Removal of ^238Pu(IV) from Mice by Polycatechoylate, -Hydroxamate or -Hydroxypyridinonate Ligands"; Radiation Research, 99, 1984, p. 85, P. W. Durbin et al., "Specific Sequestering Agents for the Actinides ..."; Radiation Research, 99, 1984, p. 106, P. W. Durbin et al., "Removal of Pu and Am from Beagles and Mice ..."; Radiation Research, 81, 1980, p. 170, R. D. Lloyd et al., and P. W. Durbin et al., "Specific Sequestering Agents for the Actinides ...". The foregoing articles are hereby incorporated by reference.
(§2) Radionuclides used in the animal studies came from a variety of sources. However, they can be purchased commercially. The ^238Pu(IV) citrate and ^241Am(III) citrate solutions were prepared for animal injection by 8- to 10-fold dilution with 0.14M NaCl (pH 4) of concentrated stock solutions (0.08M sodium citrate buffer) that had been held in frozen storage at Lawrence Berkeley Laboratory (hereinafter LBL) for several years. [The ^238Pu(IV) was originally obtained from D. R. Atherton at the University of Utah Radiobiology Laboratory, Salt Lake City. The ^241Am(III) solution had been obtained many years earlier from the LBL Actinide Chemistry group.]
The novel chelating agents of the present invention and comparative compounds were tested for their effectiveness in promoting excretion ^238Pu(IV) in nice by injected ligands as follows. Mice, in groups of five, each received an intravenous injection of 1850 Bq ^238Pu(IV) in 0.2 mL of citrate buffer. One hour later, 30 µmol/kg of ligand was injected intraperitoneally in 0.5 mL of saline. The mice were killed 24 hours after the Pu injection, frozen, and dissected after partial thawing. The ^238Pu in skeleton, soft tissues, and separated excreta was determined by counting the ^234U L x-rays. Results of removal of ^238Pu(IV) from mice by injected ligands are summarized in Table 3, which also includes data for CaNa3-DTPA and other reference ligands and the Pu-injected controls. […] While the case of multidente 1,2-HOPO and catechoylamide chelating agents, octadentates are always better chelating agents than the corresponding hexadentates and tetradentates.

Assay [2] can be described thus: Promoting excretion of 241Am(III) in mice by injected ligand. Type of assay: in vivo.
Source text: as §1, §2
One of the comparative chelating agents TREN-Me-3,2-HOPO, was also tested for effectiveness in promoting excretion of ^241Am(III), ^237Np(V), and ^232U(VI) by injection into mice, as follows: Mice, in groups of five, each received an intravenous injection of (a) 1100 Bq of ^241AM(III) in 0.2 mL of citrate buffer, (b) 150 Bq of ^232UO2Cl2 plus 3.6 mg of ^235UO2Cl2 in 0.2 mL of saline, or (c) 200 Bq of ^237NpO2Cl (7.5 mg of ^237NpO2Cl) in 0.2 mL of saline. Three to five minutes later, […] of TREN-Me-3,2-HOPO was injected intraperitoneally in 0.5 mL of saline. The mice were killed 24 hours after the actinide injection, frozen, and dissected after partial thawing. The skeleton, soft tissues, and separated excreta were radioanalyzed by counting the ^241Am gamma rays, or the alpha particles emitted by ^237Np or ^232U (and its ingrowing daughters). Removal of those actinides from mice by injected TREN-Me-3,2-HOPO is summarized in Table 5, which also includes data for mice similarly treated with CaNa3-DTPA and for actinide-injected controls. […] The structure of Am(III)-TREN-Me-3,2-HOPO is considered to resemble that of the Gd(III) complexes (see example 20). Complexation of the fraction of Np(V) that is reduced in vivo to Np(IV) is considered to resemble that of Pu(IV). Complexation of U(VI) is considered to take place through binding to UO2^2+.

Where [3] appears, read: Am(III), ligand 30 mmol.kg-1 i.p at 3 to 5 min after actinide i.v., kill at 24 h.
[4] abbreviates: Am(III), ligand 30 mmol.kg-1 i.p at 3 to 5 min after actinide i.v., kill at 24 h, pooled.

From patent publication EP0840727B1, “3-HYDROXY-2(1H)-[…] AGENTS” (priority 1995, dated 1997) come the findings set out here.

Marks after values point to notes of the source that are not given here.

As to `Cn1ccc(C(=O)NCCN(CCNC(=O)c2ccn(C)c(=O)c2O)CCNC(=O)c2ccn(C)c(=O)c2O)c(O)c1=O` [TREN-Me-3,2-HOPO, N,N,N,-Tris[(3-hydroxy-1-methyl-2-oxo-1,2-dihydropyridin-4-yl)carboxamidoethyl]-amine], in assay [1], the “percent of injected ^238Pu ± SD at 24 h, tissues: liver” value was 5.0 ± 2.2^d percent of injected ^238Pu; the “percent of injected ^238Pu ± SD at 24 h, tissues: skeleton” value is 10 ± 1.1% of injected ^238Pu; the “percent of injected ^238Pu ± SD at 24 h, tissues: soft tissue” value is reported as 2.5 ± 0.8% of injected ^238Pu; the “percent of injected ^238Pu ± SD at 24 h, whole body” value is given as 18 ± 2.7^d percent of injected ^238Pu. For the same compound, in assay [1] (pooled samples), the “percent of injected ^238Pu at 24 h, excreta: feces and GI contents” value was 43.3% of injected ^238Pu; the “percent of injected ^238Pu at 24 h, excreta: urine 0-24 h” value is given as 37% of injected ^238Pu; the “percent of injected ^238Pu at 24 h, tissues: kidneys” value is given as 0.6% of injected ^238Pu. In assay [2] (30 µmol/kg intraperitoneally three to five minutes after actinide), the “Am content of tissues compared with controls (in words)” value was “the Am content of all tissues was greatly reduced”. For the same compound, in assay [2] (setting [3]), the “percent of injected actinide ± SD at 24 h, tissues: liver” value is 1.0 ± 0.6^d,e percent of injected actinide; the “percent of injected actinide ± SD at 24 h, tissues: skeleton” value is listed as 8.1 ± 1.6^d percent of injected actinide; the “percent of injected actinide ± SD at 24 h, tissues: soft tissue” value is recorded as 1.6 ± 0.6^d percent of injected actinide; the “percent of injected actinide ± SD at 24 h, whole body” value is on record as 11 ± 1.4^d,e percent of injected actinide. In addition, in assay [2] (setting [4]), the “percent of injected actinide at 24 h, excreta: feces and GI contents” value is 38% of injected actinide; the “percent of injected actinide at 24 h, excreta: urine 0-24 h” value is 51% of injected actinide; the “percent of injected actinide at 24 h, tissues: kidneys” value was 0.2% of injected actinide.
